Consider nine molecules from PubChem BioAssay (NCI).

Usually GI50 stands for the concentration at which growth is held to half of that of the control. By TGI is commonly meant the concentration at which net growth stops.

Structures are written as SMILES.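 Method: 48-hour compound exposure of cells in 96-well plates, five concentrations, linear interpolation of endpoints. The concentration for 50% growth inhibition is given as GI50. At the TGI there is no net growth.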

Holding throughout (test): DTP human tumour cell line panel, 48 h
Assay [1] has as its system RXF 393 renal.
Assay [2] relates to HL-60(TB) leukemia.
The test system of assay [3] is SNB-75 CNS.
Assay [4] has as its system MDA-MB-231 breast.
The test system of assay [5] is NCI/ADR-RES ovarian.
The test system of assay [6] is TK-10 renal.
Assay [7] has as its system BT-549 breast.
In assay [8] the test system is NCI-H226 lung.
The subject of assay [9] is EKVX NSCLC.
Assay [10] concerns UO-31 renal.

Turning to `O=Cc1ccc(C(F)(F)F)cc1.[C-]#[O+].[C-]#[O+].[C-]#[O+].[Cr]`, the GI50 was 18.6 µM in assay [1]; 16.1 µM in assay [2]; 15.6 µM in [3]; 25 µM in assay [4]; 28.4 µM in assay [5]; 25.9 µM in assay [6]. For the same molecule, the GI50 in [7] is 40.1 µM; in assay [8] it was 21.6 µM; in assay [9] it was 16.3 µM; in [10], 16 µM. The TGI in [1] is 66.6 µM; in assay [2], 92.6 µM; in assay [3], 49.5 µM; in assay [4] it was greater than 100 µM; in [5] it was greater than 100 µM; in assay [6], greater than 100 µM. Moreover, the concentration for total growth inhibition (TGI) is greater than 100 µM in [7], 98.4 µM in assay [8], 45 µM in assay [9] and 48.5 µM in [10].
In the case of `CNCCNc1nc2ccccc2c2c(=O)c3cccc(OC)c3sc12`, the GI50 in assay [1] was 1.38 µM; in [2] it was 1.8 µM; in assay [3] it was 1.1 µM; in assay [4], 1.3 µM; in assay [5], 1.23 µM; in assay [7], 1.7 µM. Also, the GI50 was 1.61 µM in [8], 1.56 µM in assay [9] and 0.38 µM in assay [10]. Moreover, the TGI in assay [1] was 2.75 µM; in [2], 3.64 µM; in assay [3], 2.33 µM; in [4] it was 2.78 µM; in assay [5], 2.84 µM; in assay [7] it was 3.65 µM. The TGI in [8] is 3.49 µM; in assay [9], 3.05 µM; in assay [10], 2.08 µM.
Turning to `O=C(CC1C(=O)Nc2ccccc2S1=O)Nc1cccc(Cl)c1` (centres undefined), the TGI in [1] was 45.6 µM; in assay [2], greater than 64.2 µM; in assay [3], 64.1 µM; in assay [4], 34.4 µM; in assay [5], 49.8 µM; in [6], greater than 100 µM. In addition, the TGI in [7] was 77.6 µM; in assay [8], greater than 76.4 µM; in assay [9] it was greater than 87.4 µM; in assay [10], greater than 89.8 µM.
In the case of `C=C1C(=O)O[C@H]2[C@H]1CC/C(Cn1cc(CCC)nn1)=C\CC[C@@]1(C)O[C@@H]21`, the GI50 in [1] was 4.8 µM; in assay [2] it was 3.53 µM; in assay [3], 18.5 µM; in [4], 4.22 µM; in assay [5], 15.2 µM; in assay [6], 3.86 µM. The GI50 in assay [7] is 14.2 µM; in [8], 12.6 µM; in assay [9] it was 11.5 µM; in [10] it was 11.1 µM. Also, the TGI was found to be 16.5 µM in assay [1]; 15.3 µM in assay [2]; 69.4 µM in assay [3]; 16.3 µM in assay [4]; 33.4 µM in [5]; 14.6 µM in [6]. For the same molecule, the total growth inhibition concentration (TGI) in assay [7] came out at 28.6 µM; in assay [8], 33.4 µM; in [9], 23.6 µM; in [10] it was 24.6 µM.
As for `CCOC(=O)C(=Cc1ccccc1Br)C(=O)OCC`, the TGI in assay [1] was 4.97 µM; in [2], 4 µM; in [3], 75.5 µM; in [4], 36.9 µM; in assay [5], greater than 100 µM; in [6], 8.7 µM. The TGI in [7] stood at 7.07 µM; in [8] it was 8.99 µM; in [9], 17.3 µM.
Regarding `CO/N=C1/c2cc(OC)ccc2-c2c(NOC)nc3ccccc3c21`, the GI50 in assay [2] was 28.3 µM; in assay [3], 14.6 µM; in assay [4] it was 12.6 µM; in assay [5], 53 µM; in [6], 16 µM; in [7], 21.9 µM. The GI50 in [8] was 35.1 µM; in assay [9] it was 31.7 µM; in assay [10], 35.4 µM. For the same molecule, the TGI in assay [2] is greater than 100 µM; in assay [3] it was 40.2 µM; in assay [4] it was 40.1 µM; in assay [5] it was greater than 100 µM; in [6], 39.7 µM; in assay [7], 49.6 µM. Further, the TGI in [8], in assay [9] and in assay [10] was greater than 100 µM throughout.
For the molecule `Cc1nc2cc(O)c(O)cc2cc1Oc1ccc(NC(=O)Nc2ccc(Cl)c(Cl)c2)cc1`, the GI50 in assay [1] was 9.24 µM; in assay [2], 9.02 µM; in [3] it was 7.73 µM; in [4], 2.49 µM; in assay [5], 8.74 µM; in assay [6], 14.2 µM. For the same molecule, the GI50 in [7] was 7.5 µM; in assay [8], 11.8 µM; in assay [10], 6.97 µM. In addition, the TGI in assay [1] was greater than 32.5 µM; in [2] it was 22.4 µM; in [3], 28.9 µM; in assay [4] it was greater than 32.5 µM; in assay [5], greater than 32.5 µM; in [6], greater than 32.5 µM. Further, the TGI in assay [7] is greater than 32.5 µM; in assay [8], greater than 32.5 µM; in [10] it was 14.9 µM.
Regarding `O=C1NC(=NCc2ccccn2)S/C1=C\c1ccc2ncccc2c1`, the GI50 was 8.8 µM in [1]; 6.56 µM in [2]; 4.21 µM in [3]; 17.8 µM in [4]; 16.9 µM in assay [5]; 6.06 µM in assay [6]. The figures for the GI50 in assay [7], in [8] and in [10] were 9.23 µM, 15 µM and 11.3 µM, respectively. Further, the TGI was greater than 25 µM in assay [1]; greater than 25 µM in assay [2]; 22.4 µM in assay [3]; greater than 25 µM in [4]; greater than 25 µM in assay [5]; greater than 20.2 µM in assay [6]. The concentration for total growth inhibition (TGI) in assay [7], in [8] and in [10] was greater than 25 µM each time.
With `CCOc1ccc2c(c1)/C(=C\C=C\C1CC(C)C3CC(OCC)CCC3N1CC)CC(C)N2CC` (centres undefined), the GI50 was 1.17 µM in [1]; 1.82 µM in assay [2]; 0.599 µM in assay [3]; 1.22 µM in [4]; 3.14 µM in assay [5]; 1.5 µM in assay [6]. The results for the GI50 in assay [7], in [8] and in assay [10] were 0.906 µM, 1.06 µM and 1.59 µM, respectively. The TGI was 2.59 µM in assay [1]; 5.71 µM in [2]; 1.92 µM in [3]; 2.92 µM in assay [4]; greater than 100 µM in assay [5]; 2.93 µM in [6]. The total growth inhibition concentration (TGI) in assay [7] came out at 2.46 µM; in assay [8] it was 2.79 µM; in assay [10], 3.31 µM.
